Legend:
Experiment in all cases: cells
A3-KAW = format: functional, cell-based, Homo sapiens; conditions: Homo sapiens, A3-KAW;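 also: growth inhibition of human A3-KAW cells, read out with a cell viability assay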
Description: SANGER: Inhibition of human A3-KAW cell growth in a cell viability assay.

MEG-01 = format: functional, cell-based, Homo sapiens; conditions: Homo sapiens, MEG-01;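 also: growth inhibition of MEG-01 cells, read out by a cell viability assay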
Description: SANGER: Inhibition of human MEG-01 cell growth in a cell viability assay.

MC116 = format: functional, cell-based, Homo sapiens; conditions: Homo sapiens, MC116;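 also: growth inhibition of MC116 cells, read out with a cell viability assay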
Description: SANGER: Inhibition of human MC116 cell growth in a cell viability assay.

GT3TKB = format: functional, cell-based, Homo sapiens; conditions: Homo sapiens, GT3TKB;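 also: growth inhibition of the cell line, read out with a cell viability assay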
Description: SANGER: Inhibition of human GT3TKB cell growth in a cell viability assay.

NCI-H209 = format: functional, cell-based, Homo sapiens; conditions: Homo sapiens, NCI-H209;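 also: growth inhibition of human NCI-H209 cells, measured by a cell viability assay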
Description: SANGER: Inhibition of human NCI-H209 cell growth in a cell viability assay.

8-MG-BA = format: functional, cell-based, Homo sapiens; conditions: Homo sapiens, 8-MG-BA;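 also: growth inhibition of 8-MG-BA cells, read out with a cell viability assay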
Description: SANGER: Inhibition of human 8-MG-BA cell growth in a cell viability assay.

Becker = format: functional, cell-based, Homo sapiens; conditions: Homo sapiens, Becker;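 also: growth inhibition of Becker cells, read out with a cell viability assay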
Description: SANGER: Inhibition of human Becker cell growth in a cell viability assay.

EW-11 = format: functional, cell-based, Homo sapiens; conditions: Homo sapiens, EW-11;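 also: growth inhibition of human EW-11 cells, measured with a cell viability assay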
Description: SANGER: Inhibition of human EW-11 cell growth in a cell viability assay.

A704 = format: functional, cell-based; conditions: Homo sapiens;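 also: growth inhibition of human A704 cells, read out with a cell viability assay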
Description: SANGER: Inhibition of human A704 cell growth in a cell viability assay.

BB65-RCC = format: functional, cell-based, Homo sapiens; conditions: Homo sapiens, BB65-RCC;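 also: growth inhibition of the cell line, measured with a cell viability assay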
Description: SANGER: Inhibition of human BB65-RCC cell growth in a cell viability assay.

SW 962 = format: functional, cell-based, Homo sapiens; conditions: Homo sapiens, SW 962;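 also: growth inhibition of human SW962 cells, read out by a cell viability assay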
Description: SANGER: Inhibition of human SW962 cell growth in a cell viability assay.

PSN1 = format: functional, cell-based, Homo sapiens; conditions: Homo sapiens, PSN1;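 also: suppression of growth of human PSN1 cells, read out by a cell viability assay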
Description: SANGER: Inhibition of human PSN1 cell growth in a cell viability assay.

TK-10 = format: functional, cell-based, Homo sapiens; conditions: Homo sapiens, TK-10;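 also: growth inhibition of TK-10 cells, read out in a cell viability assay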
Description: SANGER: Inhibition of human TK10 cell growth in a cell viability assay.

HOP-62 = format: functional, cell-based, Homo sapiens; conditions: Homo sapiens, HOP-62;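 also: cell growth inhibition determined with a viability assay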
Description: SANGER: Inhibition of human HOP-62 cell growth in a cell viability assay.

NB13 = format: functional, cell-based, Homo sapiens; conditions: Homo sapiens, NB13;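 also: cell viability readout measuring growth inhibition of human NB13 cells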
Description: SANGER: Inhibition of human NB13 cell growth in a cell viability assay.

RPMI-8226 = format: functional, cell-based, Homo sapiens; conditions: Homo sapiens, RPMI-8226
Description: SANGER: Inhibition of human RPMI-8226 cell growth in a cell viability assay.

MLMA = format: functional, cell-based, Homo sapiens; conditions: Homo sapiens, MLMA;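 also: growth inhibition of MLMA cells (human), determined through a cell viability readout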
Description: SANGER: Inhibition of human MLMA cell growth in a cell viability assay.

ES4 = format: functional, cell-based, Homo sapiens; conditions: Homo sapiens, ES4;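 also: growth inhibition of human ES4 cells, read out by a cell viability assay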
Description: SANGER: Inhibition of human ES4 cell growth in a cell viability assay.

LB771-HNC = format: functional, cell-based; conditions: Homo sapiens;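 also: growth inhibition of LB771-HNC human cells, read out with a cell viability assay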
Description: SANGER: Inhibition of human LB771-HNC cell growth in a cell viability assay.

D283 Med = format: functional, cell-based, Homo sapiens; conditions: Homo sapiens, D283 Med
Description: SANGER: Inhibition of human D-283MED cell growth in a cell viability assay.

U-87 MG = format: functional, cell-based, Homo sapiens, U-87MG ATCC; conditions: Homo sapiens, U-87 MG;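 also: growth inhibition of the cells measured with a viability assay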
Description: SANGER: Inhibition of human U-87-MG cell growth in a cell viability assay.

IST-MEL1 = format: functional, cell-based, Homo sapiens; conditions: Homo sapiens, IST-MEL1;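 also: growth inhibition of the cell line, read out with a cell viability assay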
Description: SANGER: Inhibition of human IST-MEL1 cell growth in a cell viability assay.

HD-MY-Z = format: functional, cell-based, Homo sapiens; conditions: Homo sapiens, HD-MY-Z;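 also: growth inhibition of HD-MY-Z cells, read out with a cell viability assay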
Description: SANGER: Inhibition of human HD-MY-Z cell growth in a cell viability assay.

OCUB-M = format: functional, cell-based; conditions: Homo sapiens;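 also: growth inhibition of the cancer cell line, read out through a cell viability assay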
Description: SANGER: Inhibition of human OCUB-M cell growth in a cell viability assay.

GAK = format: functional, cell-based, Homo sapiens; conditions: Homo sapiens, GAK;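 also: cell growth inhibition read out by a cell viability assay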
Description: SANGER: Inhibition of human GAK cell growth in a cell viability assay.

HT-144 = format: functional, cell-based, Homo sapiens; conditions: Homo sapiens, HT-144
Description: SANGER: Inhibition of human HT-144 cell growth in a cell viability assay.

D-247MG = format: functional, cell-based; conditions: Homo sapiens
Description: SANGER: Inhibition of human D-247MG cell growth in a cell viability assay.

SNB-75 = format: functional, cell-based, Homo sapiens; conditions: Homo sapiens, SNB-75;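 also: cell viability assay measuring growth inhibition of human SNB-75 cells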
Description: SANGER: Inhibition of human SNB75 cell growth in a cell viability assay.

SK-PN-DW = format: functional, cell-based, Homo sapiens; conditions: Homo sapiens, SK-PN-DW;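 also: growth inhibition measured with a viability assay on these cells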
Description: SANGER: Inhibition of human SK-PN-DW cell growth in a cell viability assay.

MHH-PREB-1 = format: functional, cell-based, Homo sapiens; conditions: Homo sapiens, MHH-PREB-1;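 also: cell viability assay measuring inhibition of proliferation of human MHH-PREB-1 cells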
Description: SANGER: Inhibition of human MHH-PREB-1 cell growth in a cell viability assay.

A498 = format: functional, cell-based, Homo sapiens; conditions: Homo sapiens, A498;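 also: growth inhibition of human A498 cells, read out with a cell viability assay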
Description: SANGER: Inhibition of human A498 cell growth in a cell viability assay.

NOMO-1 = format: functional, cell-based, Homo sapiens; conditions: Homo sapiens, NOMO-1;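 also: growth inhibition of human NOMO-1 cells measured by a cell viability assay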
Description: SANGER: Inhibition of human NOMO-1 cell growth in a cell viability assay.

TE-1 = format: functional, cell-based, Homo sapiens; conditions: Homo sapiens, TE-1;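 also: growth inhibition of the human TE-1 cell line, read out with a cell viability assay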
Description: SANGER: Inhibition of human TE-1 cell growth in a cell viability assay.

ETK-1 = format: functional, cell-based, Homo sapiens; conditions: Homo sapiens, ETK-1;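 also: growth inhibition of human ETK-1 cells, read out with a cell viability assay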
Description: SANGER: Inhibition of human ETK-1 cell growth in a cell viability assay.

LS-411N = format: functional, cell-based, Homo sapiens; conditions: Homo sapiens, LS-411N
LNCaP-Clone-FGC = format: functional, cell-based, Homo sapiens; conditions: Homo sapiens, LNCaP-Clone-FGC
Description: SANGER: Inhibition of human LNCaP-Clone-FGC cell growth in a cell viability assay.

NCI-N87 = format: functional, cell-based; conditions: Homo sapiens;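 also: growth inhibition of human NCI-N87 cells, read out with a cell viability assay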
Description: SANGER: Inhibition of human NCI-N87 cell growth in a cell viability assay.

no-10 = format: functional, cell-based, Homo sapiens; conditions: Homo sapiens;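 also: growth inhibition of no-10 cells, read out with a cell viability assay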
Description: SANGER: Inhibition of human no-10 cell growth in a cell viability assay.

MMAC-SF = format: functional, cell-based; conditions: Homo sapiens;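 also: growth inhibition of human MMAC-SF cells, read out with a cell viability assay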
Description: SANGER: Inhibition of human MMAC-SF cell growth in a cell viability assay.

BB30-HNC = format: functional, cell-based, Homo sapiens; conditions: Homo sapiens, BB30-HNC;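 also: growth inhibition of the cultured cell line, read out by a cell viability assay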
Description: SANGER: Inhibition of human BB30-HNC cell growth in a cell viability assay.

C2BBe1 = format: functional, cell-based, Homo sapiens; conditions: Homo sapiens, C2BBe1;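 also: growth inhibition of C2BBe1 cells, read out through a viability assay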
Description: SANGER: Inhibition of human C2BBe1 cell growth in a cell viability assay.

JAR = format: functional, cell-based, Homo sapiens; conditions: Homo sapiens, JAR;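 also: growth inhibition of human JAR cells determined with a cell viability assay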
Description: SANGER: Inhibition of human JAR cell growth in a cell viability assay.

BB49-HNC = format: functional, cell-based, Homo sapiens; conditions: Homo sapiens, BB49-HNC;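 also: cell viability assay read-out, reported as inhibition of BB49-HNC cell growth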
Description: SANGER: Inhibition of human BB49-HNC cell growth in a cell viability assay.

KS-1 = format: functional, cell-based; conditions: Homo sapiens;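 also: growth inhibition of KS-1 cells, read out with a cell viability assay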
Description: SANGER: Inhibition of human KS-1 cell growth in a cell viability assay.

ES5 = format: functional, cell-based, Homo sapiens; conditions: Homo sapiens, ES5;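 also: growth inhibition of human ES5 cells, read out by a cell viability assay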
Description: SANGER: Inhibition of human ES5 cell growth in a cell viability assay.

SJSA-1 = format: functional, cell-based, Homo sapiens; conditions: Homo sapiens, SJSA-1;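 also: growth inhibition of human SJSA-1 cells, read out through a cell viability measurement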
Description: SANGER: Inhibition of human SJSA-1 cell growth in a cell viability assay.

DU-4475 = format: functional, cell-based, Homo sapiens; conditions: Homo sapiens, DU-4475
Description: SANGER: Inhibition of human DU-4475 cell growth in a cell viability assay.

KP-N-YS = format: functional, cell-based, Homo sapiens; conditions: Homo sapiens, KP-N-YS;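 also: cell viability assay measuring inhibition of cell line growth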
Description: SANGER: Inhibition of human KP-N-YS cell growth in a cell viability assay.

HL-60 = format: functional, cell-based, Homo sapiens; conditions: Homo sapiens, HL-60;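 also: growth inhibition of human HL-60 cells, read out with a cell viability assay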
Description: SANGER: Inhibition of human HL-60 cell growth in a cell viability assay.

SCH = format: functional, cell-based, Homo sapiens; conditions: Homo sapiens, SCH;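 also: growth inhibition of human SCH cells, read out in a cell viability assay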
Description: SANGER: Inhibition of human SCH cell growth in a cell viability assay.

DSH1 = format: functional, cell-based; conditions: Homo sapiens;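 also: growth inhibition of human DSH1 cells, measured with a cell viability readout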
Description: SANGER: Inhibition of human DSH1 cell growth in a cell viability assay.

Compound `NC(=O)Nc1cc(-c2cccc(F)c2)sc1C(=O)N[C@H]1CCCNC1` [AZD-7762] has an IC50 (A3-KAW) of 88.1 nM, an IC50 (MEG-01) of 346 nM and an IC50 (MC116) of 257 nM. The IC50 (GT3TKB) was 1490 nM, the IC50 (NCI-H209) was 324 nM and the IC50 (8-MG-BA) was 258 nM. The IC50 (Becker) was 658 nM, the IC50 (EW-11) was 563 nM and the IC50 (A704) was 539 nM. The IC50 (BB65-RCC) was 271 nM, the IC50 (SW 962) was > 2000 nM and the IC50 (PSN1) was 591 nM. The IC50 (TK-10) was 379 nM, the IC50 (HOP-62) was 726 nM and the IC50 (NB13) was 537 nM. It also gave an IC50 (RPMI-8226) of 175 nM, an IC50 (MLMA) of 28.5 nM and an IC50 (ES4) of 32.5 nM. It also gave an IC50 (LB771-HNC) of 559 nM, an IC50 (D283 Med) of 137 nM and an IC50 (U-87 MG) of 1210 nM. For the same compound, the IC50 (IST-MEL1) was 226 nM, the IC50 (HD-MY-Z) was 62.5 nM and the IC50 (OCUB-M) was > 2000 nM. The IC50 (GAK) was 1050 nM, the IC50 (HT-144) was 338 nM and the IC50 (D-247MG) was > 2000 nM. The IC50 (SNB-75) was 1200 nM, the IC50 (SK-PN-DW) was 119 nM and the IC50 (MHH-PREB-1) was 34.4 nM. The IC50 (A498) was 1730 nM, the IC50 (NOMO-1) was 61.2 nM and the IC50 (TE-1) was 1210 nM. The IC50 (ETK-1) was 637 nM, the IC50 (LS-411N) was 376 nM and the IC50 (LNCaP-Clone-FGC) was 1440 nM. For the same compound, the IC50 (NCI-N87) was 846 nM, the IC50 (no-10) was > 2000 nM and the IC50 (MMAC-SF) was > 2000 nM. For the same compound, the IC50 (BB30-HNC) was 315 nM, the IC50 (C2BBe1) was 689 nM and the IC50 (JAR) was 232 nM. The IC50 (BB49-HNC) was 1400 nM, the IC50 (KS-1) was 466 nM and the IC50 (ES5) was 135 nM. For the same compound, the IC50 (SJSA-1) was 417 nM, the IC50 (DU-4475) was 349 nM and the IC50 (KP-N-YS) was 584 nM. The IC50 (HL-60) was 774 nM, the IC50 (SCH) was 1330 nM and the IC50 (DSH1) was 1690 nM.

For `CC(C)C[C@H](NC(=O)[C@H](Cc1ccccc1)NC(=O)c1cnccn1)B(O)O` [BORTEZOMIB], the IC50 (A3-KAW) was 1.28 nM, the IC50 (MEG-01) was 3.49 nM and the IC50 (MC116) was > 20 nM. The IC50 (GT3TKB) was 2.12 nM, the IC50 (NCI-H209) was > 20 nM and the IC50 (8-MG-BA) was 0.25 nM. For the same compound, the IC50 (Becker) was 1.83 nM, the IC50 (EW-11) was > 20 nM and the IC50 (BB65-RCC) was 0.304 nM. It also gave an IC50 (SW 962) of 5.21 nM, an IC50 (PSN1) of 1.01 nM and an IC50 (TK-10) of 0.679 nM. The IC50 (HOP-62) was 0.647 nM, the IC50 (NB13) was 2 nM and the IC50 (RPMI-8226) was 2.35 nM. The IC50 (MLMA) was 8.85 nM, the IC50 (ES4) was 2.16 nM and the IC50 (LB771-HNC) was 0.474 nM. The IC50 (D283 Med) was > 20 nM, the IC50 (U-87 MG) was 16.8 nM and the IC50 (IST-MEL1) was 0.917 nM. For the same compound, the IC50 (HD-MY-Z) was 3.93 nM, the IC50 (OCUB-M) was 0.447 nM and the IC50 (HT-144) was 0.576 nM. For the same compound, the IC50 (D-247MG) was 0.413 nM, the IC50 (SNB-75) was 0.912 nM and the IC50 (SK-PN-DW) was 3.14 nM. It also gave an IC50 (MHH-PREB-1) of 4.86 nM, an IC50 (NOMO-1) of 4.33 nM and an IC50 (TE-1) of 1.03 nM. The IC50 (ETK-1) was 2.84 nM, the IC50 (LS-411N) was 1.53 nM and the IC50 (LNCaP-Clone-FGC) was > 20 nM. For the same compound, the IC50 (NCI-N87) was > 20 nM, the IC50 (no-10) was 0.21 nM and the IC50 (MMAC-SF) was 0.216 nM. For the same compound, the IC50 (BB30-HNC) was 0.335 nM, the IC50 (C2BBe1) was 2.89 nM and the IC50 (JAR) was 16.1 nM. It also gave an IC50 (BB49-HNC) of 0.652 nM, an IC50 (KS-1) of 0.34 nM and an IC50 (ES5) of 10.4 nM. The IC50 (SJSA-1) was 2.21 nM, the IC50 (DU-4475) was 1.36 nM and the IC50 (KP-N-YS) was > 20 nM. The IC50 (HL-60) was 4.67 nM, the IC50 (SCH) was > 20 nM and the IC50 (DSH1) was 0.48 nM.

With `Cc1ccc(-n2nc(C(C)(C)C)cc2NC(=O)Nc2ccc(OCCN3CCOCC3)c3ccccc23)cc1` [DORAMAPIMOD] the IC50 (A3-KAW) was > 10000 nM, the IC50 (MEG-01) was > 10000 nM and the IC50 (MC116) was > 10000 nM. The IC50 (GT3TKB) was > 10000 nM, the IC50 (NCI-H209) was > 10000 nM and the IC50 (8-MG-BA) was > 10000 nM. For the same compound, the IC50 (Becker) was > 10000 nM, the IC50 (EW-11) was > 10000 nM and the IC50 (A704) was > 10000 nM. The IC50 (BB65-RCC) was > 10000 nM, the IC50 (SW 962) was > 10000 nM and the IC50 (PSN1) was > 10000 nM. For the same compound, the IC50 (TK-10) was > 10000 nM, the IC50 (HOP-62) was > 10000 nM and the IC50 (NB13) was > 10000 nM. For the same compound, the IC50 (RPMI-8226) was > 10000 nM, the IC50 (MLMA) was > 10000 nM and the IC50 (ES4) was > 10000 nM. For the same compound, the IC50 (LB771-HNC) was > 10000 nM, the IC50 (D283 Med) was > 10000 nM and the IC50 (U-87 MG) was > 10000 nM. For the same compound, the IC50 (IST-MEL1) was > 10000 nM, the IC50 (HD-MY-Z) was > 10000 nM and the IC50 (OCUB-M) was > 10000 nM. For the same compound, the IC50 (GAK) was […], the IC50 (HT-144) was > 10000 nM and the IC50 (D-247MG) was > 10000 nM. The IC50 (SNB-75) was > 10000 nM, the IC50 (SK-PN-DW) was > 10000 nM and the IC50 (MHH-PREB-1) was > 10000 nM. For the same compound, the IC50 (A498) was > 10000 nM, the IC50 (NOMO-1) was > 10000 nM and the IC50 (TE-1) was > 10000 nM. For the same compound, the IC50 (ETK-1) was > 10000 nM, the IC50 (LS-411N) was > 10000 nM and the IC50 (LNCaP-Clone-FGC) was > 10000 nM. The IC50 (NCI-N87) was > 10000 nM, the IC50 (no-10) was > 10000 nM and the IC50 (MMAC-SF) was > 10000 nM. For the same compound, the IC50 (BB30-HNC) was > 10000 nM, the IC50 (C2BBe1) was > 10000 nM and the IC50 (JAR) was > 10000 nM. The IC50 (BB49-HNC) was > 10000 nM, the IC50 (KS-1) was > 10000 nM and the IC50 (ES5) was > 10000 nM. For the same compound, the IC50 (SJSA-1) was > 10000 nM, the IC50 (DU-4475) was > 10000 nM and the IC50 (KP-N-YS) was > 10000 nM. The IC50 (HL-60) was > 10000 nM, the IC50 (SCH) was > 10000 nM and the IC50 (DSH1) was > 10000 nM.
